Assay results reported in patent US6908908B2, “Biologically active 4H-benzo [1,4] oxazin-3-ones” (Ortho-McNeil Pharmaceutical, Inc., priority 2000, dated 2005).

Biological target: T1, PPAR γ (Homo sapiens, UniProt P37231)
T1 construct: Following the challenge of the preadipocytes, cells may be lysed with lysis buffer; endogenous in cells; host or cells: preadipocytes
T1 sequence (P37231 1-505): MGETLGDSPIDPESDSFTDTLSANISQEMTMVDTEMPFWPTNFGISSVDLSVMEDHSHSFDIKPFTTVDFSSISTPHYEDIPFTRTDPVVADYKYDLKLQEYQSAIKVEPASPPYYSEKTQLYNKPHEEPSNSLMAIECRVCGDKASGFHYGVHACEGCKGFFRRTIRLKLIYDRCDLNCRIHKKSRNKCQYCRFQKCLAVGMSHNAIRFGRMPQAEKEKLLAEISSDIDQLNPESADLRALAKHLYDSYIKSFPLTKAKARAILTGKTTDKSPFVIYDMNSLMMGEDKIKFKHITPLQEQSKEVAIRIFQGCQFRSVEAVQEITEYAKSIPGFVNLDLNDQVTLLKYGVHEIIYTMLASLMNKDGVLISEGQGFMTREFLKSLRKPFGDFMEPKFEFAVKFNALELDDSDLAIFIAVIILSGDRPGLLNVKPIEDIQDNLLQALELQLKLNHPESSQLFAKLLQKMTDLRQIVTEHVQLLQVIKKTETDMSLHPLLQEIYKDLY
Assay: aP2 Assay for Agonist (induction of aP2 mRNA production); note: test concentration or dose not given here
Format: cell-based
Settings: Table 1; fold increase over vehicle in induction of aP2 mRNA production

CC(F)(F)CCCCN1C(=O)C(CCOc2ccccc2CC(=O)O)Oc2ccccc21 (single isomer, unassigned) [Compound 88]
Agonist Intrinsic Activity: 45.4

CC(F)(F)CCCCN1C(=O)C(CCOc2ccccc2CC(=O)O)Oc2ccccc21 (single isomer, unassigned) [Compound 89]
Agonist Intrinsic Activity: 42.0

O=C(O)Cc1ccccc1OCCC1Oc2ccccc2N(CCCCCCF)C1=O (single isomer, unassigned) [Compound 92]
Agonist Intrinsic Activity: 44.8

O=C(O)Cc1ccccc1OCCC1Oc2ccccc2N(CCCCCCF)C1=O (single isomer, unassigned) [Compound 93]
Agonist Intrinsic Activity: 53.1

COC(=O)c1ccccc1OCCC1Oc2ccccc2N(Cc2ccc(C)cc2)C1=O (stereo not shown) [Compound 1]
Agonist Intrinsic Activity: 0.9

Cc1cccc(CN2C(=O)C(CCOc3ccccc3C(F)(F)F)Oc3ccccc32)c1 (stereo not shown) [Compound 2]
Agonist Intrinsic Activity: 1.2

COC(=O)c1ccccc1OCCC1Oc2ccccc2N(Cc2cccc(C)c2)C1=O (stereo not shown) [Compound 3]
Agonist Intrinsic Activity: 0.6

COC(=O)c1ccccc1OCCC1Oc2ccccc2N(Cc2ccccc2)C1=O (stereo not shown) [Compound 4]
Agonist Intrinsic Activity: 1.0

COC(=O)c1ccccc1OCCC1Oc2ccccc2N(Cc2ccc(Cl)cc2)C1=O (stereo not shown) [Compound 5]
Agonist Intrinsic Activity: 0.7

O=C1C(CCOc2ccccc2C(F)(F)F)Oc2ccccc2N1Cc1ccc(Cl)c(Cl)c1 (stereo not shown) [Compound 8]
Agonist Intrinsic Activity: 3.3

COC(=O)c1ccccc1OCCC1Oc2ccccc2N(Cc2cccc(C(F)(F)F)c2)C1=O (stereo not shown) [Compound 9, Benzoic acid, 2-[2-[3,4-dihydro-3-oxo-4-[[3-(trifluoromethyl)phenyl]methyl]-2H-1,4-benzoxazin-2-yl]ethoxy]-, methyl ester]
Agonist Intrinsic Activity: 0.9

O=C1C(CCOc2ccccc2C(F)(F)F)Oc2ccccc2N1Cc1cccc(C(F)(F)F)c1 (stereo not shown) [Compound 10]
Agonist Intrinsic Activity: 0.8

CCCCCCN1C(=O)C(CCOc2ccccc2C(=O)C(=O)O)Oc2ccccc21 (stereo not shown) [Compound 13, Benzeneacetic acid, 2-[2-(4-hexyl-3,4-dihydro-3-oxo-2H-1,4-benzoxazin-2-yl)ethoxy]-a-oxo-]
Agonist Intrinsic Activity: 2.6

CCCCCCN1C(=O)C(CCOc2ccccc2CP(=O)(O)O)Oc2ccccc21 (stereo not shown) [Compound 15, Phosphonic acid, [[2-[2-(4-hexyl-3,4-dihydro-3-oxo-2H-1,4-benzoxazin-2-yl)ethoxy]phenyl]methyl]-]
Agonist Intrinsic Activity: 7.2

CCCCCCCCCCN1C(=O)C(CCOc2ccccc2C(F)(F)F)Oc2ccccc21 (stereo not shown) [Compound 17]
Agonist Intrinsic Activity: 1.1

COCCCCN1C(=O)C(CCOc2ccccc2C(F)(F)F)Oc2ccccc21 (stereo not shown) [Compound 18]
Agonist Intrinsic Activity: 0.3

CCOCCCN1C(=O)C(CCOc2ccccc2C(F)(F)F)Oc2ccccc21 (stereo not shown) [Compound 19]
Agonist Intrinsic Activity: 1.4

CCCOCCN1C(=O)C(CCOc2ccccc2C(F)(F)F)Oc2ccccc21 (stereo not shown) [Compound 20]
Agonist Intrinsic Activity: 1.2

CCCSCCN1C(=O)C(CCOc2ccccc2C(F)(F)F)Oc2ccccc21 (stereo not shown) [Compound 21]
Agonist Intrinsic Activity: 1.9

COC(=O)Cc1ccccc1OCCC1Oc2ccccc2N(CC(=O)OC)C1=O (stereo not shown) [Compound 22]
Agonist Intrinsic Activity: 7.2

O=C(O)Cc1ccccc1OCCC1Oc2ccccc2N(CC(=O)O)C1=O (stereo not shown) [Compound 23]
Agonist Intrinsic Activity: 0.8

COC(=O)Cc1ccccc1OCCC1Oc2ccccc2N(CCOC(C)=O)C1=O (stereo not shown) [Compound 24]
Agonist Intrinsic Activity: 1.3

O=C(O)Cc1ccccc1OCCC1Oc2ccccc2N(CCO)C1=O (stereo not shown) [Compound 25]
Agonist Intrinsic Activity: 3.5

O=C([O-])c1ccccc1OCCC1Oc2ccccc2N(Cc2cccc(C(F)(F)F)c2)C1=O.[Na+] (stereo not shown) [Compound 26, Benzoic acid, 2-[2-[3,4-dihydro-3-oxo-4-[[3-(trifluoromethyl)phenyl]methyl]-2H-1,4-benzoxazin-2-yl]ethoxy]-, monosodium salt]
Agonist Intrinsic Activity: 3.1

COC(=O)Cc1ccccc1OCCC1Oc2ccccc2N(Cc2cccc(C(F)(F)F)c2)C1=O (stereo not shown) [Compound 27]
Agonist Intrinsic Activity: 0.8

O=C([O-])Cc1ccccc1OCCC1Oc2ccccc2N(Cc2cccc(C(F)(F)F)c2)C1=O.[Na+] (stereo not shown) [Compound 28]
Agonist Intrinsic Activity: 21.5

COC(=O)CCc1ccccc1OCCC1Oc2ccccc2N(Cc2cccc(C(F)(F)F)c2)C1=O (stereo not shown) [Compound 29]
Agonist Intrinsic Activity: 0.8

O=C([O-])CCc1ccccc1OCCC1Oc2ccccc2N(Cc2cccc(C(F)(F)F)c2)C1=O.[Na+] (stereo not shown) [Compound 30]
Agonist Intrinsic Activity: 5.6

COC(=O)CCCc1ccccc1OCCC1Oc2ccccc2N(Cc2cccc(C(F)(F)F)c2)C1=O (stereo not shown) [Compound 31]
Agonist Intrinsic Activity: 0.9

O=C([O-])CCCc1ccccc1OCCC1Oc2ccccc2N(Cc2cccc(C(F)(F)F)c2)C1=O.[Na+] (stereo not shown) [Compound 32]
Agonist Intrinsic Activity: 8.2

COC(=O)Cc1cccc(OCCC2Oc3ccccc3N(Cc3cccc(C(F)(F)F)c3)C2=O)c1 (stereo not shown) [Compound 33]
Agonist Intrinsic Activity: 0.8

O=C([O-])Cc1cccc(OCCC2Oc3ccccc3N(Cc3cccc(C(F)(F)F)c3)C2=O)c1.[Na+] (stereo not shown) [Compound 34]
Agonist Intrinsic Activity: 10.4

COC(=O)CCc1cccc(OCCC2Oc3ccccc3N(Cc3cccc(C(F)(F)F)c3)C2=O)c1 (stereo not shown) [Compound 35]
Agonist Intrinsic Activity: 0.8

O=C([O-])CCc1cccc(OCCC2Oc3ccccc3N(Cc3cccc(C(F)(F)F)c3)C2=O)c1.[Na+] (stereo not shown) [Compound 36]
Agonist Intrinsic Activity: 11.1

COC(=O)Cc1ccccc1OCCC1Oc2ccccc2N(Cc2ccc(C(F)(F)F)cc2)C1=O (stereo not shown) [Compound 37]
Agonist Intrinsic Activity: 1.2

O=C(O)Cc1ccccc1OCCC1Oc2ccccc2N(Cc2ccc(C(F)(F)F)cc2)C1=O (stereo not shown) [Compound 38]
Agonist Intrinsic Activity: 38.7

O=C(O)Cc1ccccc1OCCC1Oc2ccccc2N(Cc2cc(C(F)(F)F)cc(C(F)(F)F)c2)C1=O (stereo not shown) [Compound 40]
Agonist Intrinsic Activity: 6.7

O=C(O)CCc1ccccc1OCCC1Oc2ccccc2N(Cc2cc(C(F)(F)F)cc(C(F)(F)F)c2)C1=O (stereo not shown) [Compound 42]
Agonist Intrinsic Activity: 2.1

O=C(O)Cc1cccc(OCCC2Oc3ccccc3N(Cc3cc(C(F)(F)F)cc(C(F)(F)F)c3)C2=O)c1 (stereo not shown) [Compound 44]
Agonist Intrinsic Activity: 6.8

COC(=O)Cc1ccccc1OCCC1Oc2ccccc2N(CC(=O)OC)C1=O (stereo not shown) [Compound 45]
Agonist Intrinsic Activity: 7.2

O=C(O)Cc1ccccc1OCCC1Oc2ccccc2N(CC(=O)O)C1=O (stereo not shown) [Compound 46]
Agonist Intrinsic Activity: 2

COC(=O)Cc1ccccc1OCCC1Oc2ccccc2N(CCOC(C)=O)C1=O (stereo not shown) [Compound 47]
Agonist Intrinsic Activity: 1.3

O=C(O)Cc1ccccc1OCCC1Oc2ccccc2N(CCO)C1=O (stereo not shown) [Compound 48]
Agonist Intrinsic Activity: 8

C#CCN1C(=O)C(CCOc2ccccc2CC(=O)OC)Oc2ccccc21 (stereo not shown) [Compound 49]
Agonist Intrinsic Activity: 5.7

CCCCCCCN1C(=O)C(CCOc2ccccc2CC(=O)OC)Oc2ccccc21 (stereo not shown) [Compound 50]
Agonist Intrinsic Activity: 6.2

CCCCCCCN1C(=O)C(CCOc2ccccc2CC(=O)O)Oc2ccccc21 (stereo not shown) [Compound 51]
Agonist Intrinsic Activity: 28.6

CCCCCCCCN1C(=O)C(CCOc2ccccc2CC(=O)OC)Oc2ccccc21 (stereo not shown) [Compound 52]
Agonist Intrinsic Activity: 1.3

CCCCCCCCN1C(=O)C(CCOc2ccccc2CC(=O)O)Oc2ccccc21 (stereo not shown) [Compound 53]
Agonist Intrinsic Activity: 26.4

CCCCCCCCCN1C(=O)C(CCOc2ccccc2CC(=O)OC)Oc2ccccc21 (stereo not shown) [Compound 54]
Agonist Intrinsic Activity: 0.9

CCCCCCCCCN1C(=O)C(CCOc2ccccc2CC(=O)O)Oc2ccccc21 (stereo not shown) [Compound 55]
Agonist Intrinsic Activity: 7.1

CCCCCCCCCCN1C(=O)C(CCOc2ccccc2CC(=O)OC)Oc2ccccc21 (stereo not shown) [Compound 56]
Agonist Intrinsic Activity: 1.0

CCCCCCCCCCN1C(=O)C(CCOc2ccccc2CC(=O)O)Oc2ccccc21 (stereo not shown) [Compound 57]
Agonist Intrinsic Activity: 9.9

O=C(O)CCCCN1C(=O)C(CCOc2ccccc2CC(=O)O)Oc2ccccc21 (stereo not shown) [Compound 60]
Agonist Intrinsic Activity: 1.5

NC(=O)CCCCN1C(=O)C(CCOc2ccccc2CC(=O)O)Oc2ccccc21 (stereo not shown) [Compound 62]
Agonist Intrinsic Activity: 1.5

O=C(O)Cc1ccccc1OCCC1Oc2ccccc2N(CCCCCO)C1=O (stereo not shown) [Compound 64]
Agonist Intrinsic Activity: 3.6

COC(=O)Cc1ccccc1OCCC1Oc2ccccc2N(CCC2CCCCC2)C1=O (stereo not shown) [Compound 65]
Agonist Intrinsic Activity: 0.8

O=C(O)Cc1ccccc1OCCC1Oc2ccccc2N(CCC2CCCC2)C1=O (stereo not shown) [Compound 68]
Agonist Intrinsic Activity: 43.2

O=C(O)Cc1ccccc1OCCC1Oc2ccccc2N(CCCC2CCCC2)C1=O (stereo not shown) [Compound 70]
Agonist Intrinsic Activity: 57.9
